Measured values as given in BindingDB's records for doi:10.7270/Q2T43RJV (Nmmlsc, 2010).

What follows are compounds tested against Guanine nucleotide-binding protein G(o) subunit alpha (Homo sapiens, UniProt P09471) (assay: modulators of RGS4 binding to Galphao – biochemical, multiplexed bead assay, additional SAR round, SAR follow-up (AID 2829)).
Sequence of Guanine nucleotide-binding protein G(o) subunit alpha (P09471 whole entry): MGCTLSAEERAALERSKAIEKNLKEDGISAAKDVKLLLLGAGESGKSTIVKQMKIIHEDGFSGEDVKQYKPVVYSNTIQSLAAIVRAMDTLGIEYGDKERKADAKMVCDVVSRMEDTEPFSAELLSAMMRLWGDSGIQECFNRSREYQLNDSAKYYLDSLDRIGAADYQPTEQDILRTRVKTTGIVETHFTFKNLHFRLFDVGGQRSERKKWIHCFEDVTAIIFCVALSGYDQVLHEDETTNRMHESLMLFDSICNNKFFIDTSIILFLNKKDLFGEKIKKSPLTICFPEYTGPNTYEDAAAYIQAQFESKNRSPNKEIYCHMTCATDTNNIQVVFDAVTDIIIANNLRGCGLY

EC50, > 30 µM:
Cc1ccc2c(Cl)c(C(=O)NCCCN3CCOCC3)sc2c1 [KUC103874N]
O=C(NCCCn1ccnc1)c1sc2cc([N+](=O)[O-])ccc2c1Cl [3-chloro-N-[3-(1-imidazolyl)propyl]-6-nitro-1-benzothiophene-2-carboxamide]
NC(=O)c1sc2cc([N+](=O)[O-])ccc2c1Cl [KSC-1-100]
O=C(NCCCN1CCOCC1)c1sc2cc([N+](=O)[O-])ccc2c1Cl [3-chloranyl-N-(3-morpholin-4-ylpropyl)-6-nitro-1-benzothiophene-2-carboxamide]
O=C(c1sc2cc([N+](=O)[O-])ccc2c1Cl)N1CCNCC1
